Reference: US9597407B2, “Targeted antimicrobial moieties” (C3 Jian, Inc., priority 2009, dated 2017)
Entries after “also recorded” stand apart in the source; their conditions may differ.

Tests used:
bacteria = assay: Binding of targeting peptides to microorganisms (Table 3); details: peptide binding in aqueous buffers that varied depending on peptide solubility; preferably 1x PBS
microorganisms = assay: Morphology, biofilm and growth disruption by peptides (Table 5); assay type: cell-based; set-up: key: A: Peptide aggregates; B: Less hyphal formation; Clumps; Diffuse clumps and small polyps; F: Diffuse growth; H: Thin; I: Growth inhibition; Microcolony formation; Rippled; Small polyps; Thick; W: Halo formation on top, microlonies on bottom
Text: In certain embodiments peptides that induce alterations in phenotype or other biological activities can also be used as antimicrobial effector moieties.

Row | Substance | Target(s) (microorganism bound by the targeting peptide) (bacteria) | Organism, effect (morphology, biofilm and growth disruption) (microorganisms; B. subtilis) | Organism, effect (morphology, biofilm and growth disruption) (microorganisms; C. albicans) | Organism, effect (morphology, biofilm and growth disruption) (microorganisms; E. faecalis) | Organism, effect (morphology, biofilm and growth disruption) (microorganisms; S. pneumoniae) | Organism, effect (morphology, biofilm and growth disruption) (microorganisms; C. jeikeium) | Organism, effect (morphology, biofilm and growth disruption) (microorganisms; MRSA) | Organism, effect (morphology, biofilm and growth disruption) (microorganisms; S. epidermidis)
1 | PF-636 (chain 1 LVRLA; chain 2 LVRLA; Peptide with targeting and/or antimicrobial activity) | S. epidermidis and C. albicans and MRSA and S. pneumoniae and E. faecalis | B. subtilis (H) | C. albicans (B) | E. faecalis (H) | S. pneumoniae (H) |  |  | 
2 | PF-637 (chain 1 SRIKQDARSVRKYDRIGIFFYSFKSA; chain 2 SRIKQDARSVRKYDRIGIFFYSFKSA; Peptide with targeting and/or antimicrobial activity) | S. epidermidis and P. aeruginosa and C. albicans and MRSA and S. pneumoniae and E. faecalis and C. jeikeium |  |  | E. faecalis (D) | S. pneumoniae (M) | C. jeikeium (D) | MRSA (M) | S. epidermidis (M)
3 | PF-638 (chain 1 TFILPK; chain 2 TFILPK; Peptide with targeting and/or antimicrobial activity) | S. epidermidis and C. albicans and MRSA and C. jeikeium |  |  | E. faecalis (H) | S. pneumoniae (I) |  | MRSA (M) | S. epidermidis (R)
4 | PF-639 (chain 1 QATQIKSWIDRLLVSED; chain 2 QATQIKSWIDRLLVSED; Peptide with targeting and/or antimicrobial activity) | S. pneumoniae; also recorded: C. jeikeium |  | C. albicans (B) | E. faecalis (H) | S. pneumoniae (I) |  | MRSA (R) | 
5 | PF-640 (chain 1 MGDINRNF; chain 2 MGDINRNF; Peptide with targeting and/or antimicrobial activity) | C. albicans |  | C. albicans (B) | E. faecalis (H) | S. pneumoniae (I) |  |  | 
6 | PF-642 (chain 1 FTTPMIGIPAGLLGGSYYLKRREEKGK; chain 2 FTTPMIGIPAGLLGGSYYLKRREEKGK; Peptide with targeting and/or antimicrobial activity) | M. luteus and MRSA and C. jeikeium |  |  |  |  |  | MRSA (M) | 
7 | PF-643 (chain 1 VRCRL; chain 2 VRCRL; Peptide with targeting and/or antimicrobial activity) | Mycobacteria spp |  |  | E. faecalis (R) | S. pneumoniae (R) |  | MRSA (C) | 
8 | PF-644 (chain 1 TSGLIIGENGLNGL; chain 2 TSGLIIGENGLNGL; Peptide with targeting and/or antimicrobial activity) | Mycobacteria spp |  |  |  | S. pneumoniae (H) |  |  | 
9 | PF-645 (chain 1 SNSVQQG; chain 2 SNSVQQG; Peptide with targeting and/or antimicrobial activity) | Mycobacteria spp |  | C. albicans (B) |  | S. pneumoniae (I) |  |  | 
10 | PF-646 (chain 1 APASPGRRPG; chain 2 APASPGRRPG; Peptide with targeting and/or antimicrobial activity) | Mycobacteria spp |  | C. albicans (B) |  | S. pneumoniae (H) |  |  | 
11 | PF-647 (chain 1 GTFLGQKCAAATAS; chain 2 GTFLGQKCAAATAS; Peptide with targeting and/or antimicrobial activity) | Mycobacteria spp |  | C. albicans (B) |  | S. pneumoniae (R) |  |  | 
12 | PF-649 (chain 1 CPRYPFVDVGPAGPWRARWRVGS; chain 2 CPRYPFVDVGPAGPWRARWRVGS; Peptide with targeting and/or antimicrobial activity) | Mycobacteria spp |  |  | E. faecalis (R) |  |  |  | 
13 | PF-651 (chain 1 PRWPTGAGRHR; chain 2 PRWPTGAGRHR; Peptide with targeting and/or antimicrobial activity) | Mycobacteria spp |  |  |  | S. pneumoniae (H) |  |  | 
14 | PF-652 (chain 1 FLAPARPDLQAQRQALAQ; chain 2 FLAPARPDLQAQRQALAQ; Peptide with targeting and/or antimicrobial activity) | Mycobacteria spp |  |  |  | S. pneumoniae (A) |  |  | 
15 | PF-653 (chain 1 QSVHPLPAETPVADVI; chain 2 QSVHPLPAETPVADVI; Peptide with targeting and/or antimicrobial activity) | Mycobacteria spp |  |  |  | S. pneumoniae (H) |  |  | 
16 | PF-654 (chain 1 LSGRLAGRR; chain 2 LSGRLAGRR; Peptide with targeting and/or antimicrobial activity) | Mycobacteria spp |  | C. albicans (B) |  | S. pneumoniae (A) |  | MRSA (R) | 
17 | PF-655 (chain 1 DAPCFDDQFGDLKCQMC; chain 2 DAPCFDDQFGDLKCQMC; Peptide with targeting and/or antimicrobial activity) | M. smegmatis | B. subtilis (H) |  |  | S. pneumoniae (H) |  | MRSA (M) | S. epidermidis (R)
18 | PF-656 (chain 1 RGMFVPFHDVDCVQ; chain 2 RGMFVPFHDVDCVQ; Peptide with targeting and/or antimicrobial activity) | Mycobacteria spp |  |  |  |  |  | MRSA (R) | 
19 | PF-657 (chain 1 YVANYTITQFGRDFDDRLAVAIHFA; chain 2 YVANYTITQFGRDFDDRLAVAIHFA; Peptide with targeting and/or antimicrobial activity) | Mycobacteria spp |  |  | E. faecalis (D) | S. pneumoniae (H) | C. jeikeium (D) | MRSA (D) | S. epidermidis (C)
20 | PF-658 (chain 1 PTTPPPTTPPEIPTGGTVIST; chain 2 PTTPPPTTPPEIPTGGTVIST; Peptide with targeting and/or antimicrobial activity) | Mycobacteria spp |  |  |  | S. pneumoniae (H) |  | MRSA (R) | 
21 | PF-659 (chain 1 TVIST; chain 2 TVIST; Peptide with targeting and/or antimicrobial activity) | Mycobacteria spp | B. subtilis (H) |  |  | S. pneumoniae (C) |  | MRSA (R) | S. epidermidis (M)
22 | PF-660 (chain 1 TDPQATAAPRRRTSPR; chain 2 TDPQATAAPRRRTSPR; Peptide with targeting and/or antimicrobial activity) | Mycobacteria spp |  |  |  | S. pneumoniae (H) |  |  | 
23 | PF-661 (chain 1 PDEDIRRRAILPPAGPCRPMSPE; chain 2 PDEDIRRRAILPPAGPCRPMSPE; Peptide with targeting and/or antimicrobial activity) | Mycobacteria spp |  |  |  |  |  | MRSA (R) | 
24 | PF-662 (chain 1 GKQSRAHGPVASRREFRRKSG; chain 2 GKQSRAHGPVASRREFRRKSG; Peptide with targeting and/or antimicrobial activity) | Mycobacteria spp |  |  |  | S. pneumoniae (A) |  |  | 
25 | PF-663 (chain 1 ATLIPRKA; chain 2 ATLIPRKA; Peptide with targeting and/or antimicrobial activity) | Mycobacteria spp |  |  |  | S. pneumoniae (A) |  |  | 
26 | PF-664 (chain 1 DQLCVEYPARVSTG; chain 2 DQLCVEYPARVSTG; Peptide with targeting and/or antimicrobial activity) | M. smegmatis |  |  | E. faecalis (R) | S. pneumoniae (M) |  | MRSA (R) | S. epidermidis (M)
